According to patent publication US20150094474A1, “AGRICULTURAL CHEMICALS” (Redx Pharma Ltd., priority 2012, published 2015):

Tests used:
[1] = test system: Lolium perenne; assay: Herbicidal bioassay, Lolium perenne / rye grass (% necrosis); type: in vivo
Protocol: A laboratory bioassay was conducted to screen ten compounds (Fluazifop (25); Ethyl fluazifop (62); five fluazifop analogues: 27, 28, 63, 64 and 65; mesofulfuron (6); and two mesosulfuron analogues: 8 and 61. for activity against Lolium perenne, barley, peas and Chinese cabbage. Compounds were diluted in DMSO. Controls were performed using both DMSO and water.
Plants were obtained as seeds and were grown to the 2-4 true leaf stage. Plants were grown individually in seed trays. Each plant (in an approximately 3 cm diameter plug) was then detached from the tray for spraying. Environmental conditions were closely monitored and recorded and were within the optimal range of the target species.
The compounds were screened at a range of six concentrations, eg. 0.05%, 0.01%, 0.005%, 0.001%, 0.0005% and 0.0001%. Treatments will be applied directly onto the plants, using a potter tower.
One plant of each type will be sprayed using a potter tower. The 4 different types of weeds will be placed in a 10 cm diameter area underneath the potter sprayer and sprayed simultaneously. The growth of the plants and any Phytotoxicity effects will then be assessed at specified growth intervals, according to EPPO guideline PP1/135. Five replicates will be performed for each treatment, for each species.

[2] = test system: barley; assay: Herbicidal bioassay, barley (% necrosis); type: in vivo
Outline: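 Scoring of % necrosis followed EPPO guideline PP1/135 at specified growth intervals, five replicates per species and treatment. Plants at the 2-4 true leaf stage received Potter-tower sprays of DMSO-diluted compounds across six levels from 0.0001% to 0.05%, with water and DMSO controls.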

CCOC(=O)C(C)Oc1ccc(Oc2ccc(C(F)(F)F)cn2)cc1 (stereo not drawn) [Fluazifop Ethyl ester (62)]
Sum of % necrosis in Rye grass ([1]; Dose 0.000001, Day 0): C (less than 50% necrosis)
Sum of % necrosis in Rye grass ([1]; Dose 0.000001, Day 1): C (less than 50% necrosis)
Sum of % necrosis in Rye grass ([1]; Dose 0.000001, Day 3): C (less than 50% necrosis)
Sum of % necrosis in Rye grass ([1]; Dose 0.000001, Day 7): C (less than 50% necrosis)
Sum of % necrosis in Rye grass ([1]; Dose 0.000001, Day 10): C (less than 50% necrosis)
Sum of % necrosis in Rye grass ([1]; Dose 0.000001, Day 14): C (less than 50% necrosis)
Sum of % necrosis in Rye grass ([1]; Dose 0.000001, Day 21): C (less than 50% necrosis)
Sum of % necrosis in Rye grass ([1]; Dose 0.000005, Day 0): C (less than 50% necrosis)
Sum of % necrosis in Rye grass ([1]; Dose 0.000005, Day 1): C (less than 50% necrosis)
Sum of % necrosis in Rye grass ([1]; Dose 0.000005, Day 3): C (less than 50% necrosis)
Sum of % necrosis in Rye grass ([1]; Dose 0.000005, Day 7): C (less than 50% necrosis)
Sum of % necrosis in Rye grass ([1]; Dose 0.000005, Day 10): C (less than 50% necrosis)
Sum of % necrosis in Rye grass ([1]; Dose 0.000005, Day 14): C (less than 50% necrosis)
Sum of % necrosis in Rye grass ([1]; Dose 0.000005, Day 21): C (less than 50% necrosis)
Sum of % necrosis in Rye grass ([1]; Dose 0.00001, Day 0): C (less than 50% necrosis)
Sum of % necrosis in Rye grass ([1]; Dose 0.00001, Day 1): C (less than 50% necrosis)
Sum of % necrosis in Rye grass ([1]; Dose 0.00001, Day 3): C (less than 50% necrosis)
Sum of % necrosis in Rye grass ([1]; Dose 0.00001, Day 7): C (less than 50% necrosis)
Sum of % necrosis in Rye grass ([1]; Dose 0.00001, Day 10): C (less than 50% necrosis)
Sum of % necrosis in Rye grass ([1]; Dose 0.00001, Day 14): C (less than 50% necrosis)
Sum of % necrosis in Rye grass ([1]; Dose 0.00001, Day 21): C (less than 50% necrosis)
Sum of % necrosis in Rye grass ([1]; Dose 0.00005, Day 0): C (less than 50% necrosis)
Sum of % necrosis in Rye grass ([1]; Dose 0.00005, Day 1): C (less than 50% necrosis)
Sum of % necrosis in Rye grass ([1]; Dose 0.00005, Day 3): C (less than 50% necrosis)
Sum of % necrosis in Rye grass ([1]; Dose 0.00005, Day 7): C (less than 50% necrosis)
Sum of % necrosis in Rye grass ([1]; Dose 0.00005, Day 10): C (less than 50% necrosis)
Sum of % necrosis in Rye grass ([1]; Dose 0.00005, Day 14): C (less than 50% necrosis)
Sum of % necrosis in Rye grass ([1]; Dose 0.00005, Day 21): B (50%-80% necrosis)
Sum of % necrosis in Rye grass ([1]; Dose 0.0001, Day 0): C (less than 50% necrosis)
Sum of % necrosis in Rye grass ([1]; Dose 0.0001, Day 1): C (less than 50% necrosis)
Sum of % necrosis in Rye grass ([1]; Dose 0.0001, Day 3): C (less than 50% necrosis)
Sum of % necrosis in Rye grass ([1]; Dose 0.0001, Day 7): C (less than 50% necrosis)
Sum of % necrosis in Rye grass ([1]; Dose 0.0001, Day 10): C (less than 50% necrosis)
Sum of % necrosis in Rye grass ([1]; Dose 0.0001, Day 14): A (over 80% necrosis)
Sum of % necrosis in Rye grass ([1]; Dose 0.0001, Day 21): A (over 80% necrosis)
Sum of % necrosis in Rye grass ([1]; Dose 0.0005, Day 0): C (less than 50% necrosis)
Sum of % necrosis in Rye grass ([1]; Dose 0.0005, Day 1): C (less than 50% necrosis)
Sum of % necrosis in Rye grass ([1]; Dose 0.0005, Day 3): C (less than 50% necrosis)
Sum of % necrosis in Rye grass ([1]; Dose 0.0005, Day 7): C (less than 50% necrosis)
Sum of % necrosis in Rye grass ([1]; Dose 0.0005, Day 10): C (less than 50% necrosis)
Sum of % necrosis in Rye grass ([1]; Dose 0.0005, Day 14): C (less than 50% necrosis)
Sum of % necrosis in Rye grass ([1]; Dose 0.0005, Day 21): C (less than 50% necrosis)
Sum of % necrosis in barley ([2]; Dose 0.000001, Day 0): C (less than 50% necrosis)
Sum of % necrosis in barley ([2]; Dose 0.000001, Day 1): C (less than 50% necrosis)
Sum of % necrosis in barley ([2]; Dose 0.000001, Day 3): C (less than 50% necrosis)
Sum of % necrosis in barley ([2]; Dose 0.000001, Day 7): C (less than 50% necrosis)
Sum of % necrosis in barley ([2]; Dose 0.000001, Day 10): C (less than 50% necrosis)
Sum of % necrosis in barley ([2]; Dose 0.000001, Day 14): C (less than 50% necrosis)
Sum of % necrosis in barley ([2]; Dose 0.000001, Day 21): C (less than 50% necrosis)
Sum of % necrosis in barley ([2]; Dose 0.000005, Day 0): C (less than 50% necrosis)
Sum of % necrosis in barley ([2]; Dose 0.000005, Day 1): C (less than 50% necrosis)
Sum of % necrosis in barley ([2]; Dose 0.000005, Day 3): C (less than 50% necrosis)
Sum of % necrosis in barley ([2]; Dose 0.000005, Day 7): C (less than 50% necrosis)
Sum of % necrosis in barley ([2]; Dose 0.000005, Day 10): C (less than 50% necrosis)
Sum of % necrosis in barley ([2]; Dose 0.000005, Day 14): C (less than 50% necrosis)
Sum of % necrosis in barley ([2]; Dose 0.000005, Day 21): C (less than 50% necrosis)
Sum of % necrosis in barley ([2]; Dose 0.00001, Day 0): C (less than 50% necrosis)
Sum of % necrosis in barley ([2]; Dose 0.00001, Day 1): C (less than 50% necrosis)
Sum of % necrosis in barley ([2]; Dose 0.00001, Day 3): C (less than 50% necrosis)
Sum of % necrosis in barley ([2]; Dose 0.00001, Day 7): C (less than 50% necrosis)
Sum of % necrosis in barley ([2]; Dose 0.00001, Day 10): C (less than 50% necrosis)
Sum of % necrosis in barley ([2]; Dose 0.00001, Day 14): C (less than 50% necrosis)
Sum of % necrosis in barley ([2]; Dose 0.00001, Day 21): B (50%-80% necrosis)
